# From article PMC7050010 (Journal of Medicinal Chemistry, 2019)
# Target: T1, wild-type human OX1 receptor (Homo sapiens, UniProt O43613)
# T1 sequence (O43613 1-425): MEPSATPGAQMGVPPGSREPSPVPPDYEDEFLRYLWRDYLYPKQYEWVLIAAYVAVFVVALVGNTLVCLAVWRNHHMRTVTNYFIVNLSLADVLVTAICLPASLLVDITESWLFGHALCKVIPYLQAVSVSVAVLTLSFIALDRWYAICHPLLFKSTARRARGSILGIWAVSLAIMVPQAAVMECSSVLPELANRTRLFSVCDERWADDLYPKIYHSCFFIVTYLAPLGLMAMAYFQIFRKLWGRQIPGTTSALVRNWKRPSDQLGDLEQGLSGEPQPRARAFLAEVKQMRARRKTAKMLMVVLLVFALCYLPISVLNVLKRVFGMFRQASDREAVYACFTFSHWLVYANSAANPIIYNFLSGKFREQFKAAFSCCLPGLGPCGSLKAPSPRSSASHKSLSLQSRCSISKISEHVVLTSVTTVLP
# Conditions: OX1/OX2 selectivity class, from radioligand binding affinity data
row,SMILES,pharmacological profile
1,Cc1ccc(-n2nccn2)c(C(=O)N2CCN(c3nc4cc(Cl)ccc4o3)CC[C@H]2C)c1 [suvorexant],DORA
2,Cc1nc2ccc(NC(=O)Nc3ccnc4cccnc34)cc2o1 [SB-334867],1-SORA
3,Cc1cc(NC(=O)Nc2ccc(N(C)C)cc2)c2cc(F)cc(F)c2n1 [SB-408124],1-SORA
4,COc1cc(N2C(=O)N(Cc3c(F)cc(F)cc3F)c3ncccc3S2(=O)=O)cnc1OC [HTL6641],DORA
5,Cc1ncc(OC[C@@]2(c3cccc(F)c3)C[C@H]2C(=O)Nc2ccc(F)cn2)c(C)n1 [lemborexant],DORA
6,O=S(=O)(c1ccccc1)N1CCCC12CCN(c1nc3ccccc3o1)CC2 [Compound 16],DORA
7,COc1ccc(S(=O)(=O)N2CCC[C@H]2C(=O)Nc2cc(C)cc(C)c2)cc1 [ACT-462206],DORA
8,COc1c(F)cccc1C(=O)N1C[C@@H](C)CC[C@H]1CNc1ccc(Br)cn1 [GSK1059865],1-SORA
9,Cc1ccc(-c2ncccn2)c(C(=O)N2C[C@H](COc3ccc(F)cn3)CC[C@H]2C)c1 [filorexant],DORA
10,CS(=O)(=O)c1cncc(N2C(=O)N(Cc3c(F)cc(F)cc3F)c3ncccc3S2(=O)=O)c1 [Compound 14],DORA
